Test results as given in US20220030868A1, “FUNGICIDAL HALOMETHYL KETONES AND HYDRATES” (FMC CORPORATION, priority 2018, published 2022).

What was measured:
[1] = test system: Puccinia recondita f. sp. tritici; assay: Test B: test suspension sprayed on wheat seedlings one day before inoculation with Puccinia recondita f. sp. tritici spores (wheat leaf rust), disease rating; format: in vivo; settings: 100 = 100% disease control, 0 = no control
Source text: General protocol for preparing test suspensions for Tests A-C: the test compounds were first dissolved in acetone in an amount equal to 3% of the final volume and then suspended at the desired concentration (in ppm) in acetone and purified water (50/50 mix by volume) containing 250 ppm of the surfactant PEG400 (polyhydric alcohol esters). The resulting test suspensions were then used in Tests A-C. The test solution was sprayed to the point of run-off on wheat seedlings. The following day the seedlings were inoculated with a spore suspension of Puccinia recondita f. sp. tritici (the causal agent of wheat leaf rust) and incubated in a saturated atmosphere at 20° C. for 24 h, and then moved to a growth chamber at 20° C. for 6 days, after which time disease ratings were made. Results for Tests A-C are given in Table A. In the Table, a rating of 100 indicates 100% disease control and a rating of 0 indicates no disease control (relative to the controls). An asterisk “*” or a double asterisk “**” next to the rating value indicates a 50 ppm or 10 ppm test suspension was used, respectively. A dash (-) indicates the compound was not tested.

Phakopsora pachyrhizi = assay: Test A: test suspension sprayed on soybean seedlings one day before inoculation with Phakopsora pachyrhizi spores (Asian soybean rust), visual disease rating; format: in vivo; settings: 100 = 100% disease control, 0 = no control; for pest or weed control at 50 ppm / pest or weed control at 10 ppm: Phakopsora pachyrhizi
Source text: General protocol for preparing test suspensions for Tests A-C: the test compounds were first dissolved in acetone in an amount equal to 3% of the final volume and then suspended at the desired concentration (in ppm) in acetone and purified water (50/50 mix by volume) containing 250 ppm of the surfactant PEG400 (polyhydric alcohol esters). The resulting test suspensions were then used in Tests A-C.
The test solution was sprayed to the point of run-off on soybean seedlings. The following day the seedlings were inoculated with a spore suspension of Phakopsora pachyrhizi (the causal agent of Asian soybean rust) and incubated in a saturated atmosphere at 22° C. for 24 h, and then moved to a growth chamber at 22° C. for 8 days, after which time visual disease ratings were made.
Results for Tests A-C are given in Table A. In the Table, a rating of 100 indicates 100% disease control and a rating of 0 indicates no disease control (relative to the controls). An asterisk “*” or a double asterisk “**” next to the rating value indicates a 50 ppm or 10 ppm test suspension was used, respectively. A dash (-) indicates the compound was not tested.

| Structure (SMILES) | Test B rating (disease control) ([1]; 10 ppm test suspension) [%] | Test A rating (disease control) (Phakopsora pachyrhizi; 10 ppm test suspension) [%] | further results |
| --- | --- | --- | --- |
| CCO/C(=C\Oc1ccc(Cn2cncn2)cc1)C(F)(F)F [Compound 157] | 9 | 0 |  |
| O=Cc1ccc(OCC(O)(O)C(F)(F)F)cc1 [Compound 177] |  |  | Test B rating (disease control) ([1]; 50 ppm test suspension): 89%; Test A rating (disease control) (Phakopsora pachyrhizi; 50 ppm test suspension): 100% |
| CCOC(=O)c1cnn(Cc2ccc(OCC3(C(F)(F)F)OC(=O)[C@@H](C)O3)cc2)c1 (stereo partly shown) [Compound 187] | 74 | 93 |  |
| N#Cc1cnn(Cc2ccc(OCC(O)(O)C(F)(F)F)cc2)c1 [Compound 206] |  |  | Test B rating (disease control) ([1]; 50 ppm test suspension): 98%; Test A rating (disease control) (Phakopsora pachyrhizi; 50 ppm test suspension): 100% |
| O=C(c1csc(Cc2ccc(OCC(O)(O)C(F)(F)F)cc2)n1)N1CCC1 [Compound 215] | 55 | 80 |  |
| COCCNC(=O)c1csc(Cc2ccc(OCC(O)(O)C(F)(F)F)cc2)n1 [Compound 223] | 0 | 75 |  |
| CCOC(=O)c1cnn(Cc2ccc(OC(F)(F)C(O)(O)C(F)(F)F)cc2)c1 [Compound 227] | 55 | 99 |  |
| COC(=O)c1ccc(OCC(O)(O)C(F)(F)F)cc1 [Compound 229, methyl 4-(3,3,3-trifluoro-2,2-dihydroxypropoxy)phenylcarboxylate] |  |  | pest or weed control at 50 ppm ([1]; 50 ppm test suspension): 100%; pest or weed control at 50 ppm (Phakopsora pachyrhizi; 50 ppm test suspension): 99% |
| CCOC(=O)c1ccn(Cc2ccc(O/C=C(\OCC)C(F)(F)F)cc2)n1 [Compound 231, ethyl 1-[[4-[[(1Z)-2-ethoxy-3,3,3-trifluoro-1-propen-1-yl]oxy]phenyl]methyl]-1H-pyrazole-3-carboxylate] |  |  | pest or weed control at 10 ppm ([1]; 10 ppm test suspension): 0%; pest or weed control at 10 ppm (Phakopsora pachyrhizi; 10 ppm test suspension): 100% |
| CCOC(=O)c1ccn(Cc2ccc(OCC(O)(O)C(F)(F)F)cc2)n1 [Compound 233] |  |  | Test B rating (disease control) ([1]; 50 ppm test suspension): 96%; Test A rating (disease control) (Phakopsora pachyrhizi; 50 ppm test suspension): 100% |
| CCOC(=O)c1ccnn1Cc1ccc(OCC(O)(O)C(F)(F)F)cc1 [Compound 234] |  |  | Test B rating (disease control) ([1]; 50 ppm test suspension): 92%; Test A rating (disease control) (Phakopsora pachyrhizi; 50 ppm test suspension): 100% |
| O=C(NCC1CC1)c1cnc(Cc2ccc(OCC(O)(O)C(F)(F)F)cc2)o1 [Compound 247] | 0 | 13 |  |
| O=C(NCC1CC1)c1cnc(Cc2ccc(OCC3(C(F)(F)F)OCCO3)cc2)o1 [Compound 248] | 0 | 71 |  |
| O=C(NCC1CC1)c1cnc(Cc2ccc(OCC(O)(O)C(F)(F)F)cc2)s1 [Compound 256] | 0 | 73 |  |
| O=C(NCC(F)(F)F)c1cnc(Cc2ccc(OCC3(C(F)(F)F)OCCO3)cc2)o1 [Compound 257] | 0 | 54 |  |
| O=C(NCC1CC1)c1cnc(Cc2ccc(OCC3(C(F)(F)F)OCCO3)cc2)s1 [Compound 259] | 0 | 25 |  |
| CCO/C(=C\Oc1ccc(Cn2ncnc2SC)cc1)C(F)(F)F [Compound 260] | 0 | 0 |  |
| CCO/C(=C\Oc1ccc(Cn2cnc(SC)n2)cc1)C(F)(F)F [Compound 261] | 0 | 0 |  |
| CCOC(=O)c1cnn(Cc2ccc(OCC3(C(F)(F)F)OCCO3)c(F)c2)c1 [Compound 263, ethyl 1-[[3-fluoro-4-[[2-(trifluoromethyl)-1,3-dioxolan-2-yl]methoxy]phenyl]methyl]-1H-pyrazole-4-carboxylate] |  |  | pest or weed control at 10 ppm ([1]; 10 ppm test suspension): 0%; pest or weed control at 10 ppm (Phakopsora pachyrhizi; 10 ppm test suspension): 100% |
| CCOC(=O)c1cnn(Cc2cccc(OCC(O)(O)C(F)(F)F)c2)c1 [Compound 266, ethyl 1-[[3-(3,3,3-trifluoro-2,2-dihydroxypropoxy)phenyl]methyl]-1H-pyrazole-4-carboxylate] |  |  | pest or weed control at 50 ppm ([1]; 50 ppm test suspension): 74%; pest or weed control at 50 ppm (Phakopsora pachyrhizi; 50 ppm test suspension): 86% |
| O=C(NCC(F)(F)F)c1cnc(Cc2ccc(OCC(O)(O)C(F)(F)F)cc2)o1 [Compound 274] | 0 | 48 |  |
| O=C(NCC(F)(F)F)c1cnc(Cc2ccc(OCC3(C(F)(F)F)OCCO3)cc2)s1 [Compound 275] | 0 | 0 |  |

| Structure (SMILES) | Test B rating (disease control) ([1]; 10 ppm test suspension) [%] | Test A rating (disease control) (Phakopsora pachyrhizi; 10 ppm test suspension) [%] | further results |
| --- | --- | --- | --- |
| O=C(NCC(F)(F)F)c1cnc(Cc2ccc(OCC(O)(O)C(F)(F)F)cc2)s1 [Compound 277] | 45 | 50 |  |
| O=[N+]([O-])c1ccc(OCC(O)(O)C(F)(F)F)cc1 [Compound 280] |  |  | Test B rating (disease control) ([1]; 50 ppm test suspension): 100%; Test A rating (disease control) (Phakopsora pachyrhizi; 50 ppm test suspension): 100% |
| CCOC(=O)c1cnn(CCCc2ccc(OCC(O)(O)C(F)(F)F)cc2)c1 [Compound 286] | 55 | 87 |  |
| O=C(NCC(F)F)c1cnc(Cc2ccc(OCC(O)(O)C(F)(F)F)cc2)s1 [Compound 295] |  |  | Test B rating (disease control) ([1]; 50 ppm test suspension): 80%; Test A rating (disease control) (Phakopsora pachyrhizi; 50 ppm test suspension): 99% |
| CCOC(=O)c1cnn(COCc2ccc(O/C=C(\OCC)C(F)(F)F)cc2)c1 [Compound 297, ethyl 1-[[4-[[(1Z)-2-ethoxy-3,3,3-trifluoro-1-propen-1-yl]oxy]phenylmethoxy]methyl]-1H-pyrazole-4-carboxylate] |  |  | pest or weed control at 10 ppm ([1]; 10 ppm test suspension): 0%; pest or weed control at 10 ppm (Phakopsora pachyrhizi; 10 ppm test suspension): 100% |
| CCO/C(=C\Oc1cccc(Cn2cc(C(=O)OC)cn2)c1)C(F)(F)F [Compound 330, methyl 1-[[3-[[(1Z)-2-ethoxy-3,3,3-trifluoro-1-propen-1-yl]oxy]phenyl]methyl]-1H-pyrazole-4-carboxylate] |  |  | pest or weed control at 10 ppm ([1]; 10 ppm test suspension): 0%; pest or weed control at 10 ppm (Phakopsora pachyrhizi; 10 ppm test suspension): 100% |
| CCCOC(=O)c1cnn(Cc2cccc(O/C=C(\OCC)C(F)(F)F)c2)c1 [Compound 331, propyl 1-[[3-[[(1Z)-2-ethoxy-3,3,3-trifluoro-1-propen-1-yl]oxy]phenyl]methyl]-1H-pyrazole-4-carboxylate] |  |  | pest or weed control at 10 ppm ([1]; 10 ppm test suspension): 0%; pest or weed control at 10 ppm (Phakopsora pachyrhizi; 10 ppm test suspension): 100% |
| CCOC(=O)c1cnn(COc2ccc(O/C=C(\OCC)C(F)(F)F)cc2)c1 [Compound 364, ethyl 1-[[4-[[(1Z)-2-ethoxy-3,3,3-trifluoro-1-propen-1-yl]oxy]phenoxy]methyl]-1H-pyrazole-4-carboxylate] |  |  | pest or weed control at 50 ppm ([1]; 50 ppm test suspension): 0%; pest or weed control at 50 ppm (Phakopsora pachyrhizi; 50 ppm test suspension): 100% |
| COC(=O)c1cnn(Cc2ccc(OCC3(C(F)(F)F)OCCO3)cc2)c1 [compound 13] | 0 | 99 |  |
| CC(C)OC(=O)c1cnn(Cc2ccc(OCC3(C(F)(F)F)OCCO3)cc2)c1 [compound 14] | 0 | 100 |  |
| C#CCOC(=O)c1cnn(Cc2ccc(OCC3(C(F)(F)F)OCCO3)cc2)c1 [compound 15] | 0 | 100 |  |
| CCCCCCOC(=O)c1cnn(Cc2ccc(OCC3(C(F)(F)F)OCCO3)cc2)c1 [compound 16] | 0 | 99 |  |
| O=C(OCc1ccc(Cl)c(Cl)c1)c1cnn(Cc2ccc(OCC3(C(F)(F)F)OCCO3)cc2)c1 [compound 17] | 0 | 100 |  |
| O=C(OCc1ccc(F)c(F)c1)c1cnn(Cc2ccc(OCC3(C(F)(F)F)OCCO3)cc2)c1 [compound 18] | 0 | 100 |  |
| CN(C)C(=O)C1=NOC(c2ccc(OCC3(C(F)(F)F)OCCO3)cc2)C1 (stereo not shown) [compound 22] | 0 | 38 |  |
| CCS(=O)(=O)Cc1ccc(OCC2(C(F)(F)F)OCCO2)cc1 [compound 23] | 19 | 0 |  |
| CS(=O)(=O)c1ccc(OCC2(C(F)(F)F)OCCO2)cc1 [compound 24] | 91 | 81 |  |
| CN(C)S(=O)(=O)c1ccc(OCC2(C(F)(F)F)OCCO2)cc1 [compound 25] | 0 | 0 |  |
| CCOC(=O)c1cnn(C(C)c2ccc(OCC3(C(F)(F)F)OCCO3)cc2)c1 (stereo not shown) [compound 26] | 0 | 99 |  |
| COC(=O)NN=Cc1ccc(OCC2(C(F)(F)F)OCCO2)cc1 [compound 27] | 0 | 0 |  |
| FC(F)(F)C1(COc2ccc(OCC3(C(F)(F)F)OCCO3)cc2)OCCO1 [compound 28] | 0 | 0 |  |
| CCOC(=O)c1cnn(Cc2ccc(O/C=C(\OC)C(F)(F)F)cc2)c1 [compound 53] |  |  | Test B rating (disease control) ([1]; 50 ppm test suspension): 67%; Test A rating (disease control) (Phakopsora pachyrhizi; 50 ppm test suspension): 100% |
